Key:
Format in all cases: in vivo
[1] = system: rice; experiment: Effects on rice growth in Thailand, phytotoxicity (Table 2); settings: scale 0-10
Excerpt: (§1) Methyl 2-[[[[(4-methoxy-6-methyl-1,3,5-triazin-2-yl)amino]carbonyl]amino]sulfonyl]benzoate (Compound 1) and mixtures thereof with other compounds were applied as a spray (using a hand sprayer) to rice (either transplanted or direct seeded) in several rice growing areas in Southeast Asia and in the U.S. Tables 1-28 contain the results of these tests and clearly exemplify the utility of this invention. The details of each application are included in the appropriate table. [drawing 2]

[2] = system: MV; experiment: Herbicidal efficacy in relation to application timing in Indonesia (Table 5)
Excerpt: as §1

[3] = system: PS; experiment: as above; settings: 3 WAT
Excerpt: as §1

Compound: COC(=O)c1ccccc1S(=O)(=O)NC(=O)Nc1nc(C)nc(OC)n1 [Compound 1, Methyl 2-[[[[(4-methoxy-6-methyl-1,3,5-triazin-2-yl)amino]carbonyl]amino]sulfonyl]benzoate]
- PHYTOTOXICITY ([1]; applied 7 DAS, 3 GAI/HA): 1.67
- PHYTOTOXICITY ([1]; applied 7 DAS, 6 GAI/HA): 1.33
- PHYTOTOXICITY ([1]; applied 14 DAS, 3 GAI/HA): 1.0
- PHYTOTOXICITY ([1]; applied 14 DAS, 6 GAI/HA): 1.0
- PHYTOTOXICITY ([1]; applied 21 DAS, 3 GAI/HA): 0
- PHYTOTOXICITY ([1]; applied 21 DAS, 6 GAI/HA): 0
- PHYTOTOXICITY ([1]; applied 28 DAS, 3 GAI/HA): 0
- PHYTOTOXICITY ([1]; applied 28 DAS, 6 GAI/HA): 0
- % CONTROL MV ([2]; 3 WAT, 2 GAI/HA, evaluation 1): 80%
- % CONTROL MV ([2]; 3 WAT, 2 GAI/HA, evaluation 2): 80%
- % CONTROL MV ([2]; 3 WAT, 2 GAI/HA, evaluation 3): 100%
- % CONTROL MV ([2]; 3 WAT, 3 GAI/HA, evaluation 1): 80%
- % CONTROL MV ([2]; 3 WAT, 3 GAI/HA, evaluation 2): 100%
- % CONTROL MV ([2]; 3 WAT, 3 GAI/HA, evaluation 3): 100%
- % CONTROL MV ([2]; 3 WAT, 4 GAI/HA, evaluation 1): 100%
- % CONTROL MV ([2]; 3 WAT, 4 GAI/HA, evaluation 2): 100%
- % CONTROL MV ([2]; 3 WAT, 4 GAI/HA, evaluation 3): 100%
- % CONTROL MV ([2]; 3 WAT, 6 GAI/HA, evaluation 1): 80%
- % CONTROL MV ([2]; 3 WAT, 6 GAI/HA, evaluation 2): 100%
- % CONTROL MV ([2]; 3 WAT, 6 GAI/HA, evaluation 3): 100%
- % CONTROL MV ([2]; 3 WAT, 8 GAI/HA, evaluation 1): 100%
- % CONTROL MV ([2]; 3 WAT, 8 GAI/HA, evaluation 2): 100%
- % CONTROL MV ([2]; 3 WAT, 8 GAI/HA, evaluation 3): 100%
- % CONTROL MV ([2]; 4 WAT, 2 GAI/HA, evaluation 1): 80%
- % CONTROL MV ([2]; 4 WAT, 2 GAI/HA, evaluation 2): 100%
- % CONTROL MV ([2]; 4 WAT, 2 GAI/HA, evaluation 3): 100%
- % CONTROL MV ([2]; 4 WAT, 3 GAI/HA, evaluation 1): 80%
- % CONTROL MV ([2]; 4 WAT, 3 GAI/HA, evaluation 2): 100%
- % CONTROL MV ([2]; 4 WAT, 3 GAI/HA, evaluation 3): 100%
- % CONTROL MV ([2]; 4 WAT, 4 GAI/HA, evaluation 1): 80%
- % CONTROL MV ([2]; 4 WAT, 4 GAI/HA, evaluation 2): 100%
- % CONTROL MV ([2]; 4 WAT, 4 GAI/HA, evaluation 3): 100%
- % CONTROL MV ([2]; 4 WAT, 6 GAI/HA, evaluation 1): 80%
- % CONTROL MV ([2]; 4 WAT, 6 GAI/HA, evaluation 2): 100%
- % CONTROL MV ([2]; 4 WAT, 6 GAI/HA, evaluation 3): 100%
- % CONTROL MV ([2]; 4 WAT, 8 GAI/HA, evaluation 1): 100%
- % CONTROL MV ([2]; 4 WAT, 8 GAI/HA, evaluation 2): 100%
- % CONTROL MV ([2]; 4 WAT, 8 GAI/HA, evaluation 3): 100%
- % CONTROL MV ([2]; 5 WAT, 2 GAI/HA, evaluation 1): 80%
- % CONTROL MV ([2]; 5 WAT, 2 GAI/HA, evaluation 2): 80%
- % CONTROL MV ([2]; 5 WAT, 2 GAI/HA, evaluation 3): 80%
- % CONTROL MV ([2]; 5 WAT, 3 GAI/HA, evaluation 1): 80%
- % CONTROL MV ([2]; 5 WAT, 3 GAI/HA, evaluation 2): 100%
- % CONTROL MV ([2]; 5 WAT, 3 GAI/HA, evaluation 3): 100%
- % CONTROL MV ([2]; 5 WAT, 4 GAI/HA, evaluation 1): 80%
- % CONTROL MV ([2]; 5 WAT, 4 GAI/HA, evaluation 2): 100%
- % CONTROL MV ([2]; 5 WAT, 4 GAI/HA, evaluation 3): 100%
- % CONTROL MV ([2]; 5 WAT, 6 GAI/HA, evaluation 1): 80%
- % CONTROL MV ([2]; 5 WAT, 6 GAI/HA, evaluation 2): 100%
- % CONTROL MV ([2]; 5 WAT, 6 GAI/HA, evaluation 3): 100%
- % CONTROL MV ([2]; 5 WAT, 8 GAI/HA, evaluation 1): 100%
- % CONTROL MV ([2]; 5 WAT, 8 GAI/HA, evaluation 2): 100%
- % CONTROL MV ([2]; 5 WAT, 8 GAI/HA, evaluation 3): 100%
- % CONTROL PS ([3]; 2 GAI/HA, evaluation 1): 0%
- % CONTROL PS ([3]; 2 GAI/HA, evaluation 2): 0%
- % CONTROL PS ([3]; 2 GAI/HA, evaluation 3): 0%
- % CONTROL PS ([3]; 3 GAI/HA, evaluation 1): 0%
- % CONTROL PS ([3]; 3 GAI/HA, evaluation 2): 0%
- % CONTROL PS ([3]; 3 GAI/HA, evaluation 3): 0%
- % CONTROL PS ([3]; 4 GAI/HA, evaluation 1): 0%
- % CONTROL PS ([3]; 4 GAI/HA, evaluation 2): 0%
- % CONTROL PS ([3]; 4 GAI/HA, evaluation 3): 0%
- % CONTROL PS ([3]; 6 GAI/HA, evaluation 1): 0%
- % CONTROL PS ([3]; 6 GAI/HA, evaluation 2): 0%
- % CONTROL PS ([3]; 6 GAI/HA, evaluation 3): 0%
- % CONTROL PS ([3]; 8 GAI/HA, evaluation 1): 0%
- % CONTROL PS ([3]; 8 GAI/HA, evaluation 2): 0%
- % CONTROL PS ([3]; 8 GAI/HA, evaluation 3): 0%

From patent EP0377642B1, “HERBICIDES FOR WEED CONTROL IN RICE” (E.I. DU PONT DE NEMOURS AND COMPANY, priority 1987, dated 1989)
